Source: the supplement of paper PMC10307832

How the values were obtained:
Assay in all cases: relative viability (nuclei count vs DMSO), 5 days (fraction); higher = more cells survive
Bemcentinib + Pemetrexed = compound: Nc1nc(Nc2ccc3c(c2)CC[C@@H](N2CCCC2)CC3)nn1-c1cc2c(nn1)-c1ccccc1CCC2 [Bemcentinib] + Nc1nc2[nH]cc(CCc3ccc(C(=O)N[C@@H](CCC(=O)O)C(=O)O)cc3)c2c(=O)[nH]1 [Pemetrexed] (partner 0.2 µM)
Method in brief: (§1)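 Lung cancer cell lines in 1536-well plates got either a single drug or a fixed anchor-drug dose together with five library-drug doses (not always all listed) in √10 steps, by pin tool, on the day after seeding. Nuclei were counted after 5 days, and relative viability is the treated-to-vehicle ratio of nuclei counts. Values are medians of duplicate plates.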

Bemcentinib + Foretinib = compound: Nc1nc(Nc2ccc3c(c2)CC[C@@H](N2CCCC2)CC3)nn1-c1cc2c(nn1)-c1ccccc1CCC2 [Bemcentinib] + COc1cc2c(Oc3ccc(NC(=O)C4(C(=O)Nc5ccc(F)cc5)CC4)cc3F)ccnc2cc1OCCCN1CCOCC1 [Foretinib] (partner 0.25 µM)
Method in brief: as §1

Bemcentinib + Dasatinib = compound: Nc1nc(Nc2ccc3c(c2)CC[C@@H](N2CCCC2)CC3)nn1-c1cc2c(nn1)-c1ccccc1CCC2 [Bemcentinib] + Cc1nc(Nc2ncc(C(=O)Nc3c(C)cccc3Cl)s2)cc(N2CCN(CCO)CC2)n1 [Dasatinib] (partner 0.075 µM)
Method in brief: as §1

Bemcentinib + Navitoclax = compound: Nc1nc(Nc2ccc3c(c2)CC[C@@H](N2CCCC2)CC3)nn1-c1cc2c(nn1)-c1ccccc1CCC2 [Bemcentinib] + CC1(C)CCC(c2ccc(Cl)cc2)=C(CN2CCN(c3ccc(C(=O)NS(=O)(=O)c4ccc(N[C@H](CCN5CCOCC5)CSc5ccccc5)c(S(=O)(=O)C(F)(F)F)c4)cc3)CC2)C1 [Navitoclax] (partner 0.5 µM)
Method in brief: as §1

Cell Line	relative viability (Bemcentinib + Pemetrexed; first compound 0.04 µM)	relative viability (Bemcentinib + Pemetrexed; first compound 0.1265 µM)	relative viability (Bemcentinib + Pemetrexed; first compound 0.4 µM)	relative viability (Bemcentinib + Pemetrexed; first compound 1.265 µM)	relative viability (Bemcentinib + Pemetrexed; first compound 4 µM)	relative viability (Bemcentinib + Foretinib; first compound 0.04 µM)	relative viability (Bemcentinib + Foretinib; first compound 0.1265 µM)	relative viability (Bemcentinib + Foretinib; first compound 0.4 µM)	relative viability (Bemcentinib + Foretinib; first compound 1.265 µM)	relative viability (Bemcentinib + Foretinib; first compound 4 µM)	relative viability (Bemcentinib + Dasatinib; first compound 0.04 µM)	relative viability (Bemcentinib + Dasatinib; first compound 0.1265 µM)	relative viability (Bemcentinib + Dasatinib; first compound 0.4 µM)	relative viability (Bemcentinib + Dasatinib; first compound 1.265 µM)	relative viability (Bemcentinib + Dasatinib; first compound 4 µM)	relative viability (Bemcentinib + Navitoclax; first compound 0.04 µM)	relative viability (Bemcentinib + Navitoclax; first compound 0.1265 µM)	relative viability (Bemcentinib + Navitoclax; first compound 0.4 µM)	relative viability (Bemcentinib + Navitoclax; first compound 1.265 µM)	relative viability (Bemcentinib + Navitoclax; first compound 4 µM)
NCI-H520	0.65	0.848	0.788	0.686	0.785	0.957	0.748	0.911	0.685	0.791	0.197	0.194	0.257	0.206	0.23	1.19	1.19	1.42	1.11	1.07
NCI-H596	0.477	0.53	0.55	0.478	0.474	0.84	0.848	0.974	0.799	0.94	0.454	0.604	0.575	0.593	0.627	0.955	0.994	1.11	1.04	1.14
NCI-H647	0.175	0.164	0.199	0.156	0.152	1.33	1.22	1.24	1.49	1.2	0.169	0.213	0.211	0.186	0.136	1.14	1.36	1.15	1.03	1.09
NCI-H838	0.229	0.267	0.272	0.257	0.262	1.05	1.15	1.21	1.11	1.18	0.221	0.305	0.309	0.254	0.294	1.15	1.28	1.36	1.13	1.36
NCI-H1355	1.06	1.16	1.13	1.03	1.04	0.958	1.12	1.03	1.04	0.98	0.723	0.778	0.829	0.778	0.841	0.947	0.943	1.08	0.941	0.976
NCI-H1395		1.03	0.903	0.797	0.82	0.994	1.05	1.04	0.934	1.05	0.393	0.392	0.439	0.364	0.396	1.11	1.35	1.05	1.23	1.19
NCI-H1437	0.305	0.323	0.322	0.362	0.331	1.28	1.26	1.33	1.21	1.3	0.365	0.421	0.416	0.438	0.38	1.09	1.16	1.23	1.13	1.15
NCI-H1650	0.327	0.337	0.414	0.391	0.364	1.12	1.1	0.969	0.885	1.32	0.344	0.382	0.347	0.346	0.321	1.1	1.29	0.946	1.33	1.16
